Assay results as given in paper PMC12486301 (The Journal of pharmacology and experimental therapeutics, 2025).
Where a name gives a salt, the structure may show the parent alone. Read-outs that look alike come from different tables or passages of the source. One block for each molecule: values may come before it.

What was measured:
[1] = target: T1, ENT1 (Homo sapiens, UniProt Q99808); assay: Inhibition of [3H]uridine uptake into WT HeLa; assay type: cell-based; conditions: for inhibition at 20 µM: HeLa; for ENT1 % Inhibition (±SD): model-predicted compounds from MedChem Express Drug Repurposing Library
T1 sequence (Q99808 1-456): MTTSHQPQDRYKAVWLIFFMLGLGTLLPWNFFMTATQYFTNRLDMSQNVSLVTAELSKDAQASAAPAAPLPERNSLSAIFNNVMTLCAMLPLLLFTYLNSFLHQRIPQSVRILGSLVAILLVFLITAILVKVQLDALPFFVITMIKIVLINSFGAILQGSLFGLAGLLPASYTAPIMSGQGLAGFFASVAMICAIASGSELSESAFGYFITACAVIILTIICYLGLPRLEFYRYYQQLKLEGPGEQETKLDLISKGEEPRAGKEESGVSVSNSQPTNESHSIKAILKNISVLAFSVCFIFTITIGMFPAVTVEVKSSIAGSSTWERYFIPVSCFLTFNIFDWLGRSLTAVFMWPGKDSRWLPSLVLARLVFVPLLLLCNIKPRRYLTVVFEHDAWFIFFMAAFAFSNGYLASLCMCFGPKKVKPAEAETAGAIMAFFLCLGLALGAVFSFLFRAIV

[2] = target: T2, ENT2 (Homo sapiens, UniProt Q14542); assay: Inhibition of [3H]uridine uptake into HeLa FlpIn cells overexpressing hENT2; assay type: cell-based; conditions: for inhibition at 20 µM: HeLa, read-out: ENT2 % Inhibition (20μM); for ENT2 % Inhibition (20μM): 20 μM compound, 5 min [3H]uridine uptake, HeLa cells overexpressing hENT2
T2 sequence (Q14542 1-456): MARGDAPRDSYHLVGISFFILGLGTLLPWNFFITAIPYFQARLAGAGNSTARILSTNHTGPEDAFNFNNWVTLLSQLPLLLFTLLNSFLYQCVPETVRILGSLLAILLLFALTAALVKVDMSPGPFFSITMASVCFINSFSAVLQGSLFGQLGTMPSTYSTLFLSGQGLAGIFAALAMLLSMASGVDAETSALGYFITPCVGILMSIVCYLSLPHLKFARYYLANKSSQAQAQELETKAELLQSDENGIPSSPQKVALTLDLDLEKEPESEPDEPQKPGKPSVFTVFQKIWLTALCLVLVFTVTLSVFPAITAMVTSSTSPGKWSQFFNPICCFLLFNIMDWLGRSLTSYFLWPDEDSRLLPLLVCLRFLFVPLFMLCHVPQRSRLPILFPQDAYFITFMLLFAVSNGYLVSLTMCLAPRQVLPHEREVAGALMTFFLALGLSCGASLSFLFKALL

[3] = read-out: ENT1 % Inhibition (±SD)
[4] = read-out: ENT1 % Inhibition (20μM)

inhibition at 20 µM [1, 3]: 73.6%
SMILES: Cc1c(OCC(F)(F)F)ccnc1C[S@@+]([O-])c1nc2ccccc2[nH]1 [(R)-Lansoprazole]

SMILES: C[C@]12CC[C@@H]3c4ccc(O)cc4CC[C@H]3[C@@H]1CC[C@H]2O [Alpha-Estradiol]
inhibition at 20 µM [1, 3]: 77.2%

inhibition at 20 µM [1, 3]: 88.1%
SMILES: COc1cc(OC)c2c(=O)[nH]c(-c3cc(C)c(OCCO)c(C)c3)nc2c1 [Apabetalone]

inhibition at 20 µM [1, 3]: 67.5%
SMILES: COc1cc(C[C@H]2C(=O)OC[C@@H]2Cc2ccc(OC)c(OC)c2)ccc1O [Arctigenin]

SMILES: CC[C@@H](C(=O)Nc1ccc(C(N)=O)c(F)c1)n1cc(OC)c(-c2cc(Cl)ccc2-n2cc(C(F)(F)F)nn2)cc1=O [Asundexian]
ENT1 % Inhibition (±SD) ([1]; 20 μM): 95.39 (0.23) %

inhibition at 20 µM [1, 3]: 100%
SMILES: COc1ccc(CN=c2[nH]c(N3CCC[C@H]3CO)ncc2C(=O)NCc2ncccn2)cc1Cl [Avanafil]

ENT1 % Inhibition (±SD) ([1]; 20 μM): 74.95 (4.00) %
SMILES: COc1cccc(C(=O)COc2ccc(CC3SC(=O)NC3=O)cc2)c1 (stereo not shown) [Azemiglitazone]

ENT1 % Inhibition (±SD) ([1]; 20 μM): 97.87 (1.06) %
SMILES: COc1cc(C(=O)c2c(C)oc3c(O)c(OC)ccc23)cc(OC)c1OC [BNC105]

inhibition at 20 µM [1, 3]: 72.3%
SMILES: COC(=O)c1cc(OC)c2c(c1-c1c(CO)cc(OC)c3c1OCO3)OCO2 [Bicyclol]

ENT1 % Inhibition (±SD) ([1]; 20 μM): 72.99 (5.06) %
SMILES: COc1ccc(S(=O)(=O)Nc2cc(-c3c(O)ccc4ccccc34)c(O)c3ccccc23)cc1 [C188-9]

inhibition at 20 µM [1, 3]: 98%
SMILES: CCOc1ccc2c(-c3cccc(F)c3)nn(CC(=O)N(C)c3ccc4nc(C)oc4c3)c(=O)c2c1 [CFTR corrector 2]

inhibition at 20 µM [1, 3]: 57.3%
SMILES: COc1ccc(-c2c(Cl)ncn2-c2ccc(S(N)(=O)=O)cc2)cc1F [Cimicoxib]

inhibition at 20 µM [1, 3]: 98.2%
SMILES: COc1cc2c(cc1OC)-c1c/c(=N\c3c(C)cc(C)cc3C)n(CCNC(N)=O)c(=O)n1CC2 [Ensifentrine]

IC50 [1]: 4 µM
inhibition at 20 µM ([1]; read-out: ENT1 inhibition of uridine uptake (Spectrum screen, text)): ~85%
SMILES: O=C(O[C@@H]1Cc2c(O)cc(O)cc2O[C@@H]1c1ccc(O)c(O)c1)c1cc(O)c(O)c(O)c1 [Epicatechin gallate]

inhibition at 20 µM [1, 3]: 92%
SMILES: CO[C@H]1C[C@@H]2CC[C@@H](C)[C@@](O)(O2)C(=O)C(=O)N2CCCC[C@H]2C(=O)O[C@H]([C@H](C)C[C@@H]2CC[C@@H](OCCO)[C@H](OC)C2)CC(=O)[C@H](C)/C=C(\C)[C@@H](O)[C@@H](OC)C(=O)[C@H](C)C[C@H](C)/C=C/C=C/C=C/1C [Everolimus]

ENT1 % Inhibition (±SD) ([1]; 20 μM): 54.94 (2.47) %
SMILES: C#CCOc1ccc(/C=C/C(=O)Nc2ccccc2C(=O)O)cc1OC [FT011]

inhibition at 20 µM [1, 3]: 86.8%
SMILES: COc1cccc(-c2cc(F)c(Nc3ncccc3C(=O)O)c(F)c2)c1 [Farudodstat]

inhibition at 20 µM [1, 3]: 68.1%
SMILES: COc1cc(-c2cnc3cc(OCCN4CCOCC4)ccn23)cc2c1C(=O)N(CC(F)(F)F)CC2 [GLPG3970]

inhibition at 20 µM [1, 3]: 56.2%
SMILES: Cc1cccc(-c2nn3c(c2-c2ccnc4ccc(C(N)=O)cc24)CCC3)n1 [Galunisertib]

inhibition at 20 µM [1, 3]: 91.4%
SMILES: CO[C@H]1CC[C@H](n2c([C@@H]3CCCC(=O)N3c3ccc(F)c(F)c3)nc3cc(-c4c(C)noc4C)ccc32)CC1 [Inobrodib]

inhibition at 20 µM [1, 3]: 92.7%
SMILES: COC(=O)C1=C(C)NC(C)=C(C(=O)OC(C)C)C1c1cccc2nonc12 (stereo not shown) [Isradipine]

inhibition at 20 µM [1, 3]: 96.1%
SMILES: CCn1c(=O)c2c(nc(/C=C/c3ccc(OC)c(OC)c3)n2C)n(CC)c1=O [Istradefylline]

inhibition at 20 µM [1, 3]: 81.3%
SMILES: CNc1nc(-c2cccc(NC(=O)c3ccc(C(=O)OC)cc3)c2)c2cc(OC)c(OC)cc2n1 [Lotamilast]

ENT1 % Inhibition (±SD) ([1]; 20 μM): 58.49 (4.13) %
SMILES: Cc1ccc(C(=O)Nc2ccc(Oc3cc4cnn(C)c4cc3-c3cn[nH]c3)c(F)c2)c(=O)n1-c1ccc(F)cc1.Cl.Cl [Merestinib dihydrochloride]

inhibition at 20 µM [1, 3]: 79.3%
SMILES: CCCOc1ccc(S(=O)(=O)N2CCN(CCO)CC2)cc1-c1nc2c(CCC)cn(CC)c2c(=O)[nH]1 [Mirodenafil (dihydrochloride), Mirodenafil]

ENT1 % Inhibition (±SD) ([1]; 20 μM): 67.27 (11.1) %
SMILES: C#Cc1cccc(Nc2ncnc3cc(OC)c(OCCCN4CCOCC4)cc23)c1 [NRC-2694]

inhibition at 20 µM [1, 3]: 76.8%
SMILES: COC(=O)C1=C(C)NC(C)=C(C(=O)OCCN(C)Cc2ccccc2)C1c1cccc([N+](=O)[O-])c1 (stereo not shown) [Nicardipine (hydrochloride), Nicardipine]

inhibition at 20 µM [1, 3]: 72.6%
SMILES: COC(=O)C1=C(C)NC(C)=C(C(=O)OC)C1c1ccccc1[N+](=O)[O-] [Nifedipine]

inhibition at 20 µM [1, 3]: 82.9%
SMILES: CC(=O)O[C@]1(C(C)=O)CC[C@H]2[C@@H]3C=C(C)C4=CC(=O)CC[C@@H]4[C@H]3CC[C@@]21C [Nomegestrol acetate]

inhibition at 20 µM [1, 3]: 78.3%
SMILES: CCCCC1(CCCC)CN(c2ccccc2)c2cc(SC)c(OCC(=O)N[C@@H](C(=O)N[C@@H](CC)C(=O)O)c3ccc(O)cc3)cc2S(=O)(=O)N1 [Odevixibat]

inhibition at 20 µM [1, 3]: 51.3%
SMILES: COc1ccc2[nH]c([S+]([O-])Cc3ncc(C)c(OC)c3C)nc2c1 (stereo not shown) [Omeprazole (sodium), Omeprazole]

inhibition at 20 µM [1, 3]: 87.5%
SMILES: C=CC(=O)N1CCC(c2ccc(C(N)=O)c(-c3ccc(Oc4ccccc4)cc3)n2)CC1 [Orelabrutinib]

ENT1 % Inhibition (±SD) ([1]; 20 μM): 100.45 (0.02) %
SMILES: CCn1cnc2c(-c3ccc(F)c(-c4ccc(S(=O)(=O)CC)cc4OC)c3)cnnc21 [PF-06372865]

SMILES: Oc1ccc(C2=Cc3ccc(O)cc3OC2)cc1 [Phenoxodiol]
inhibition at 20 µM [1, 3]: 69.3%

inhibition at 20 µM [1, 3]: 54.7%
SMILES: COc1cc(/C=C/c2ccc(O)cc2)cc(OC)c1 [Pterostilbene]

ENT1 % Inhibition (±SD) ([1]; 20 μM): 98.17 (0.19) %
SMILES: COc1cccc(-c2nccc3[nH]c(=O)c(-c4noc(C)n4)cc23)c1 [Radequinil]

inhibition at 20 µM [1, 3]: 67.5%
SMILES: COc1cc([C@H]2Oc3cc([C@H]4Oc5cc(O)cc(O)c5C(=O)[C@@H]4O)ccc3O[C@@H]2CO)ccc1O [Silybin A]

inhibition at 20 µM [1, 3]: 50.3%
SMILES: COc1cc2c(Nc3ccc(Br)cc3F)ncnc2cc1OCC1CCN(C)CC1 [Vandetanib]

SMILES: C/C=C/c1cc(OC)c(OC)cc1OC [alpha-Asarone]
ENT1 % Inhibition (±SD) ([1]; 20 μM): 52.42 (3.92) %

IC50 [2]: 262 ± 108 µM
inhibition at 20 µM [2]: 25.4%
IC50 [1]: 29.8 ± 2.1 µM
inhibition at 20 µM [1, 4]: 79.6%
SMILES: CCc1oc2ccccc2c1C(=O)c1cc(Br)c(O)c(Br)c1 [benzbromarone]

ENT2 % Inhibition (20μM) [2]: 56.5%
ENT1 % Inhibition (20μM) ([1]; 20 μM compound, 5 min [3H]uridine uptake, WT HeLa cells): 74.5%
IC50 ([1]; read-out: ENT1 IC50 (μM) ± SD, 5 min uptake of ~10 nM [3H]uridine, WT HeLa cells): 24 ± 5.1 µM
SMILES: Cc1ccc([C@@H]2O[C@H](CO)[C@@H](O)[C@H](O)[C@H]2O)cc1Cc1ccc(-c2ccc(F)cc2)s1 [canagliflozin]

IC50 [2]: 0.16 ± 0.04 µM
inhibition at 20 µM [2]: 64.3%
inhibition at 20 µM [1, 4]: 24.4%
SMILES: O=c1[nH]c2ccccc2n1CCCN1CCC(n2c(=O)[nH]c3cc(Cl)ccc32)CC1 [domperidone]

IC50 [2]: 3.82 ± 0.3 µM
inhibition at 20 µM [2]: 85.1%
IC50 [1]: 121 ± 0.7 µM
inhibition at 20 µM [1, 4]: 20%
SMILES: CCOC(=O)c1ncn2c1CN(C)C(=O)c1cc(F)ccc1-2 [flumazenil]

inhibition at 20 µM [2]: 54.6%
SMILES: COc1cc2ncnc(Nc3ccc(F)c(Cl)c3)c2cc1OCCCN1CCOCC1 [gefitinib]

ENT1 inhibition of uridine uptake (Spectrum screen, text) ([1]; 20 μM, Spectrum Collection screen (Table S1)): ~ 65%
IC50 ([1]; read-out: predicted IC50 for ENT1, predicted from inhibition at 20 μM): 12 µM
SMILES: COc1cc(O)cc(O)c1C(=O)c1ccccc1 [isocotoin]

SMILES: NC[C@H]1O[C@H](O[C@H]2[C@H](O)[C@@H](O[C@H]3O[C@H](CO)[C@@H](O)[C@H](N)[C@H]3O)[C@H](N)C[C@@H]2N)[C@H](O)[C@@H](O)[C@@H]1O [kanamycin]
ENT2 % Inhibition (20μM) [2]: 11.7%
ENT1 % Inhibition (20μM) [1]: 43.7%

IC50 [2]: 172 ± 60.2 µM
inhibition at 20 µM [2]: 33%
SMILES: CCCCc1nc(Cl)c(CO)n1Cc1ccc(-c2ccccc2-c2nn[nH]n2)cc1 [losartan]

IC50 [2]: 210 ± 89.2 µM
inhibition at 20 µM [2]: 56.3%
IC50 [1]: 4.44 ± 0.9 µM
inhibition at 20 µM [1, 4]: 95.1%
SMILES: CC(=O)[C@H]1CC[C@H]2[C@@H]3C[C@H](C)C4=CC(=O)CC[C@]4(C)[C@H]3[C@@H](O)C[C@]12C [medrysone]

SMILES: O=c1c(O)c(-c2cc(O)c(O)c(O)c2)oc2cc(O)cc(O)c12 [myricetin]
IC50 [2]: 28.2 ± 1.6 µM
IC50 [1]: 47.4 ± 1.7 µM
inhibition at 20 µM [1, 4]: 82.4%

IC50 [2]: 266 ± 81.5 µM
inhibition at 20 µM [2]: 8.5%
IC50 [1]: 101 ± 8.9 µM
inhibition at 20 µM [1, 4]: 24.4%
SMILES: C[C@@H]1O[C@@H](O[C@H]2[C@H](Oc3cc(O)c4c(c3)O[C@H](c3ccc(O)cc3)CC4=O)O[C@H](CO)[C@@H](O)[C@@H]2O)[C@H](O)[C@H](O)[C@H]1O [naringin]

SMILES: O=c1c(O)c(-c2ccc(O)c(O)c2)oc2cc(O)cc(O)c12 [quercetin]
IC50 [2]: 117 ± 24.6 µM
inhibition at 20 µM [2]: 84.3%
IC50 [1]: 20.6 ± 6.8 µM
inhibition at 20 µM [1, 4]: 53.1%
